Read-outs that look alike come from different tables or passages of the source.
Columns and labels:
MDS patients [1] = tested on: MDS patients
MDS patients [2] = conditions: pivotal CALGB study, approved Aza dose regimen subcutaneously; cited from earlier work
[3] = tested on: high-risk MDS patients with -7/del(7q); experiment: AZA-001 subgroup analysis: patients with -7/del(7q); type: in vivo, human
[4] = tested on: patients older than 55 years of age with AML; conditions: patients older than 55 years with AML, prior retrospective analysis; cited from earlier work

## Nc1ncn([C@@H]2O[C@H](CO)[C@@H](O)[C@H]2O)c(=O)n1 [azacitidine, 4-amino-1-β-D-ribofuranosyl-1,3,5-triazin-2(1H)-one]
MDS patients [1]; AZA 5-2-5 (50 mg/m2/d)
  patients with at least 1 treatment-emergent AE that led to study discontinuation: 20%
  patients with bilineage HI: 7%
  patients with serious AEs: 40%
MDS patients [1]; AZA 5-2-5 (50 mg/m2/d), N=44
  Any HI (major and minor): 23 (52) [37, 68] %
  Erythroid Major HI (IWG 2000), evaluable patients: 17 (39) [24, 55] %
  Erythroid Minor HI: 1 (2) [0.1, 12] %
  Neutrophil Major HI: 4 (9) [40, 100] %
  Neutrophil Minor HI: 0 [0, 8] %
  Platelet Major HI: 8 (18) [8, 33] %
  Platelet Minor HI: 0 [0, 8] %
MDS patients [1]; AZA 5-2-5 (50 mg/m2/d), N=48
  Grade 3/4 AE: Anemia: 7 (15) %
  Grade 3/4 AE: Candida Sepsis: 0%
  Grade 3/4 AE: Cellulitis: 1 (2) %
  Grade 3/4 AE: Epistaxis: 0%
  Grade 3/4 AE: Febrile neutropenia: 4 (8) %
  Grade 3/4 AE: GI hemorrhage: 1 (2) %
  Grade 3/4 AE: Hematologic Disorders: 24 (50) %
  Grade 3/4 AE: Hemorrhagic Events: 3 (6) %
  Grade 3/4 AE: Hemorrhagic anemia: 0 n (%)
  Grade 3/4 AE: Infections: 14 (29) %
  Grade 3/4 AE: Leukopenia: 4 (8) %
  Grade 3/4 AE: Neutropenia: 15 (31) %
  Grade 3/4 AE: Pneumonia: 4 (8) %
  Grade 3/4 AE: Rectal hemorrhage: 1 (2) %
  Grade 3/4 AE: Thrombocytopenia: 7 (15) %
  Grade 3/4 AE: Urinary tract infection: 3 (6) %
  Grade 3/4 AE: ≥1 Adverse Event: 37 (77) %
MDS patients [1]; AZA 5-2-5 (50 mg/m2/d), n=24
  onset of IWG-defined HI in Cycle 1: 6 (25) %
  onset of IWG-defined HI in Cycle 2: 8 (33) %
  onset of IWG-defined HI in Cycle 3: 7 (29) %
  onset of IWG-defined HI in Cycle 4: 2 (8) %
  onset of IWG-defined HI in Cycle 6: 0%
MDS patients [1]; all 3 regimens
  hematologic AE: anemia: 29%
  hematologic AE: leukopenia: 18%
  hematologic AE: neutropenia: 38%
  hematologic AE: thrombocytopenia: 24%
  nonhematologic AE: constipation: 51%
  nonhematologic AE: fatigue: 93%
  nonhematologic AE: injection site erythema: 55%
  nonhematologic AE: injection site pain: 54%
  nonhematologic AE: nausea: 55%
MDS patients [1]; all 3 regimens, N=148
  Grade 3/4 AE: Anemia: 24 (16) %
  Grade 3/4 AE: Candida Sepsis: 1 (1) %
  Grade 3/4 AE: Cellulitis: 4 (3) %
  Grade 3/4 AE: Epistaxis: 1 (1) %
  Grade 3/4 AE: Febrile neutropenia: 9 (6) %
  Grade 3/4 AE: GI hemorrhage: 2 (1) %
  Grade 3/4 AE: Hematologic Disorders: 74 (50) %
  Grade 3/4 AE: Hemorrhagic Events: 8 (5) %
  Grade 3/4 AE: Infections: 30 (20) %
  Grade 3/4 AE: Leukopenia: 15 (10) %
  Grade 3/4 AE: Neutropenia: 47 (32) %
  Grade 3/4 AE: Pneumonia: 5 (3) %
  Grade 3/4 AE: Rectal hemorrhage: 1 (1) %
  Grade 3/4 AE: Thrombocytopenia: 26 (18) %
  Grade 3/4 AE: Urinary tract infection: 3 (2) %
  Grade 3/4 AE: ≥1 Adverse Event: 108 (73) %
MDS patients [1]; all 3 regimens, n=12
  serious AEs involving GI disorders: 8%
MDS patients [1]; all 3 regimens, n=19
  serious AEs involving blood or lymphatic system disorders: 13%
MDS patients [1]; all 3 regimens, n=31
  serious AEs involving infections: 21%
MDS patients [1]; each alternative dosing regimen group
  patients platelet transfusion independent at baseline who remained independent: ≥ 92%
MDS patients [1]; each of the 3 alternative treatment groups (2 patients each)
  patients with trilineage HI: 4%
MDS patients [1]; five patients (AZA 5-2-2 n=2, AZA 5 n=3)
  platelet transfusion independence in baseline-dependent patients: all of whom achieved transfusion independence
MDS patients [1]; three alternative dosing regimens
  tolerability: generally well tolerated
MDS patients [2]
  baseline RBC transfusion dependent patients who achieved transfusion independence: 45%
[3]; -7/del(7q) alone
  IWG 2000 response rate (CR+PR): 64%
[3]; -7/del(7q) as part of complex karyotype
  IWG 2000 response rate (CR+PR): 21%
[3]; -7/del(7q) patients
  CR: 8/30, 27%
  CR + PR: 13/30, 43%
  HI-E: 13/26, 50%
  HI-P: 10/20, 50%
[3]; RBC-dependent -7/del(7q) patients at BL
  RBC TI (transfusion independence): 12/21, 57%
[3]; patients with -7/del(7q)
  OS advantage at 2 years vs CCR: 4 fold
  hazard ratio for overall survival, azacitidine vs CCR: 0.33
  improvement in OS over CCR: 3 fold
  median Kaplan Meier difference in OS, AZA vs CCR: 8.4 months
  patients alive at 2 years: 33%
  reduced risk of death vs CCR: 67%
  tolerability: generally well tolerated
[3]; patients with -7/del(7q), azacitidine n=30
  median Kaplan-Meier overall survival: 13.1 months
[4]
  overall response rate: 60%
